Source: patent US20250236599A1, “LIPID NANOPARTICLES FOR OLIGONUCLEOTIDE DELIVERY” (ZIPHIUS NV, priority 2021, published 2025)

Experiments:
[1] = Weight evolution of the animals following administration of LNPs; assay type: in vivo; conditions: female SWISS mice
Procedure: (§1) Female SWISS mice (6 weeks old) were purchased from Janvier Laboratories (Paris, France) and kept in individually ventilated cages with access to food and water ad libitum. Mice were anesthetized with isoflurane (Zoetis, Louvain-La-Neuve, Belgium) (5% for induction and 2% for maintenance) and intramuscularly injected with a total of 1 μg in 100 μL Tris-HCL (50 μL per leg) LNP-formulated luciferase saRNA (for each group n=7). The expression of the luciferase induced bioluminescence was measured via non-invasive In vivo bioluminescent imaging (In vivo Imaging System (IVIS) Lumina III, Perkin Elmer, Waltham, Massachusetts, USA), 10 minutes after subcutaneous injection of […] of D-luciferin (GoldBio, Saint Louis, Missouri, USA, #LUCK-1G) were measured in day 0 (before injection), day 1, day 3, day 5, day 7, day 10, day 15 and day 20.

[2] = test system: expression of the luciferase saRNA; assay: In vivo bioluminescent imaging after intramuscular injection of LNP-formulated luciferase saRNA; conditions: 1 μg LNP-formulated luciferase saRNA intramuscularly, female SWISS mice
Procedure: as §1

[3] = Day 1, 1 μg LNP-formulated saRNA intramuscularly
[4] = Day 3, 1 μg LNP-formulated saRNA intramuscularly
[5] = Day 5, 1 μg LNP-formulated saRNA intramuscularly
[6] = Day 7, 1 μg LNP-formulated saRNA intramuscularly
[7] = Day 10, 1 μg LNP-formulated saRNA intramuscularly
[8] = Day 15, 1 μg LNP-formulated saRNA intramuscularly
[9] = Day 20, 1 μg LNP-formulated saRNA intramuscularly

Row | SMILES | Weight ([1]; Day 0) [g] | Weight [1, 3] [g] | Weight [1, 4] [g] | Weight [1, 5] [g] | Weight [1, 6] [g] | Weight [1, 7] [g] | Weight [1, 8] [g] | Weight [1, 9] [g] | Bioluminescence expression of LNPs ([2]; Day 1) | Bioluminescence expression of LNPs ([2]; Day 3) | Bioluminescence expression of LNPs ([2]; Day 5) | Bioluminescence expression of LNPs ([2]; Day 7) | Bioluminescence expression of LNPs ([2]; Day 10) | Bioluminescence expression of LNPs ([2]; Day 15) | Bioluminescence expression of LNPs ([2]; Day 20)
1 | CCCCCCC(CCCC)C(=O)OCCCCCCN(CCCCCCOC(=O)C(CCCC)CCCCCC)CCN(CCCCCCOC(=O)C(CCCC)CCCCCC)CCN1CCN(CCN(CCCCCCOC(=O)C(CCCC)CCCCCC)CCCCCCOC(=O)C(CCCC)CCCCCC)CC1 (centres unmarked) [Compound 9-28, ((2-(4-(2-((2-(bis(6-((2-butyloctanoyl)oxy)hexyl)amino)ethyl) (6-((2-butyloctanoyl)oxy)hexyl)amino)ethyl)piperazin-1-yl)ethyl)azanediyl)bis(hexane-6,1-diyl)bis(2-butyloctanoate)] | 28.36 | 27.19 | 29.44 | 29.17 | 29.37 | 29.39 | 31.43 | 32.46 | 1.01E+08 | 8.67E+08 | 9.45E+08 | 5.65E+08 | 2.08E+06 | 8.15E+04 | 3.35E+04
2 | CCCCCCC(CCCC)C(=O)NCCCCCCN(CCCCCCNC(=O)C(CCCC)CCCCCC)CCN1CCN(CCN(CCCCCCNC(=O)C(CCCC)CCCCCC)CCCCCCNC(=O)C(CCCC)CCCCCC)CC1 (centres unmarked) [Compound 9-41, N, N', N″, N″'-(((piperazine-1,4-diylbis(ethane-2,1-diyl))bis(azanetriyl))tetrakis(hexane-6,1-diyl))tetrakis(2-butyloctanamide)] | 29.19 | 29.19 | 29.43 | 29.21 | 30.44 | 31.06 | 31.26 | 31.77 |  |  |  |  |  |  | 
3 | CCCCCCCCC(CCCCCC)C(=O)OCCCCCCN(CCCCCCOC(=O)C(CCCCCC)CCCCCCCC)CCN(CCCCCCOC(=O)C(CCCCCC)CCCCCCCC)CCN1CCN(CCN(CCCCCCOC(=O)C(CCCCCC)CCCCCCCC)CCCCCCOC(=O)C(CCCCCC)CCCCCCCC)CC1 (centres unmarked) [Compound 9-31, ((2-(4-(2-((2-(bis(6-((2-hexyldecanoyl)oxy)hexyl)amino)ethyl) (6-((2-hexyldecanoyl)oxy)hexyl)amino)ethyl)piperazin-1-yl)ethyl)azanediyl)bis (hexane-6,1-diyl)bis(2-hexyldecanoate)] | 27.70 | 26.17 | 28.46 | 27.66 | 28.29 | 28.27 | 29.76 | 30.90 | 3.10E+07 | 2.74E+08 | 5.31E+08 | 2.16E+08 | 2.22E+06 | 2.46E+05 | 2.71E+04
4 | CCCCCCCCC(CCCCCC)C(=O)OCCN(CCOC(=O)C(CCCCCC)CCCCCCCC)CCN1CCN(CCN(CCOC(=O)C(CCCCCC)CCCCCCCC)CCOC(=O)C(CCCCCC)CCCCCCCC)CC1 (centres unmarked) [Compound 9-35, ((piperazine-1,4-diylbis(ethane-2,1-diyl))bis(azanetriyl))tetrakis(ethane-2,1-diyl)tetrakis(2-hexyldecanoate)] | 30.01 | 30.06 | 30.43 | 29.87 | 30.30 | 31.23 | 32.13 | 32.23 | 8.83E+05 | 9.99E+07 | 5.92E+07 | 6.45E+07 | 5.62E+07 | 6.82E+05 | 2.44E+05
